Laboratory results from the supplement of paper PMC8671470.

Legend:
Settings in all cases: 72 h
[1] = test system: K-562; assay: cell viability (% survival relative to DMSO control, bortezomib = 0%); higher = less cytotoxic
Procedure, shortened: (§1)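 Fifteen myeloid leukaemia cell lines (10 AML, 5 CML) were seeded at a density titrated to the linear growth range into 384-well plates pre-printed with compounds at 1, 10, 100, 1000 or 10000 nM in duplicate. Plates were incubated for 72 h at 37 °C with 5% CO2. Viability was then read by CellTiter-Glo luminescence. Each value is percent survival averaged over the duplicates, with vehicle set to 100% and a 10 µM positive control to 0%.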

[2] = test system: MOLM-13; assay: as above
Procedure, shortened: as §1

[3] = test system: SHI-1; assay: as above
Procedure, shortened: as §1

[4] = test system: KU-812; assay: as above
Procedure, shortened: as §1

[5] = test system: Mono-Mac-6; assay: as above
Procedure, shortened: as §1

[6] = test system: THP-1; assay: as above
Procedure, shortened: as §1

[7] = test system: ML-2; assay: as above
Procedure, shortened: as §1

[8] = test system: KCL-22; assay: as above
Procedure, shortened: as §1

[9] = test system: HL-60; assay: as above
Procedure, shortened: as §1

[10] = test system: BV-173; assay: as above
Procedure, shortened: as §1

[11] = test system: MV4-11; assay: as above
Procedure, shortened: as §1

[12] = test system: HEL; assay: as above
Procedure, shortened: as §1

[13] = test system: KG-1; assay: as above
Procedure, shortened: as §1

[14] = test system: LAMA-84; assay: as above
Procedure, shortened: as §1

[15] = test system: NOMO-1; assay: as above
Procedure, shortened: as §1

[16] = test system: K-562
Procedure, shortened: (§2)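 The IC50 was read from log-logistic dose–response fits. Fifteen myeloid leukaemia lines were exposed for 72 h at 37 °C with 5% CO2 to five tenfold doses from 1 to 10,000 nM in duplicate. ATP luminescence, normalised to vehicle and to a 10 µM positive control, was fitted with four parameters.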

[17] = test system: MOLM-13
Procedure, shortened: as §2

[18] = test system: SHI-1
Procedure, shortened: as §2

[19] = test system: KU-812
Procedure, shortened: as §2

[20] = test system: Mono-Mac-6
Procedure, shortened: as §2

[21] = test system: THP-1
Procedure, shortened: as §2

[22] = test system: ML-2
Procedure, shortened: as §2

[23] = test system: KCL-22
Procedure, shortened: as §2

[24] = test system: HL-60
Procedure, shortened: as §2

[25] = test system: BV-173
Procedure, shortened: as §2

[26] = test system: MV4-11
Procedure, shortened: as §2

[27] = test system: HEL
Procedure, shortened: as §2

[28] = test system: KG-1
Procedure, shortened: as §2

[29] = test system: LAMA-84
Procedure, shortened: as §2

[30] = test system: NOMO-1
Procedure, shortened: as §2

## N[C@@H](CC(=O)N1CCn2c(nnc2C(F)(F)F)C1)Cc1cc(F)c(F)cc1F [Sitagliptin]
[1]; 1 nM
  cell viability: 93.8%
[1]; 10 nM
  cell viability: 96.9%
[1]; 100 nM
  cell viability: 103%
[1]; 1000 nM
  cell viability: 99.7%
[1]; 10000 nM
  cell viability: 113%
[2]; 1 nM
  cell viability: 95.5%
[2]; 10 nM
  cell viability: 110%
[2]; 100 nM
  cell viability: 92.5%
[2]; 1000 nM
  cell viability: 84.3%
[2]; 10000 nM
  cell viability: 95.4%
[3]; 1 nM
  cell viability: 95.2%
[3]; 10 nM
  cell viability: 104%
[3]; 100 nM
  cell viability: 105%
[3]; 1000 nM
  cell viability: 96.8%
[3]; 10000 nM
  cell viability: 97.4%
[4]; 1 nM
  cell viability: 94.6%
[4]; 10 nM
  cell viability: 98.9%
[4]; 100 nM
  cell viability: 91.9%
[4]; 1000 nM
  cell viability: 95.5%
[4]; 10000 nM
  cell viability: 102%
[5]; 1 nM
  cell viability: 92.5%
[5]; 10 nM
  cell viability: 83.8%
[5]; 100 nM
  cell viability: 96.1%
[5]; 1000 nM
  cell viability: 85.6%
[5]; 10000 nM
  cell viability: 100%
[6]; 1 nM
  cell viability: 97.8%
[6]; 10 nM
  cell viability: 99.7%
[6]; 100 nM
  cell viability: 106%
[6]; 1000 nM
  cell viability: 99%
[6]; 10000 nM
  cell viability: 97.6%
[7]; 1 nM
  cell viability: 90%
[7]; 10 nM
  cell viability: 102%
[7]; 100 nM
  cell viability: 99.3%
[7]; 1000 nM
  cell viability: 97.4%
[7]; 10000 nM
  cell viability: 97.9%
[8]; 1 nM
  cell viability: 94%
[8]; 10 nM
  cell viability: 114%
[8]; 100 nM
  cell viability: 106%
[8]; 1000 nM
  cell viability: 94.4%
[8]; 10000 nM
  cell viability: 92.8%
[9]; 1 nM
  cell viability: 101%
[9]; 10 nM
  cell viability: 95.5%
[9]; 100 nM
  cell viability: 97.1%
[9]; 1000 nM
  cell viability: 91.3%
[9]; 10000 nM
  cell viability: 95.2%
[10]; 1 nM
  cell viability: 89.5%
[10]; 10 nM
  cell viability: 103%
[10]; 100 nM
  cell viability: 99.9%
[10]; 1000 nM
  cell viability: 93.4%
[10]; 10000 nM
  cell viability: 102%
[11]; 1 nM
  cell viability: 89.2%
[11]; 10 nM
  cell viability: 102%
[11]; 100 nM
  cell viability: 99.3%
[11]; 1000 nM
  cell viability: 92.2%
[11]; 10000 nM
  cell viability: 101%
[12]; 1 nM
  cell viability: 90.7%
[12]; 10 nM
  cell viability: 95.3%
[12]; 100 nM
  cell viability: 111%
[12]; 1000 nM
  cell viability: 95.4%
[12]; 10000 nM
  cell viability: 103%
[13]; 1 nM
  cell viability: 90.9%
[13]; 10 nM
  cell viability: 104%
[13]; 100 nM
  cell viability: 108%
[13]; 1000 nM
  cell viability: 95.2%
[13]; 10000 nM
  cell viability: 103%
[14]; 1 nM
  cell viability: 93.1%
[14]; 10 nM
  cell viability: 99.2%
[14]; 100 nM
  cell viability: 94%
[14]; 1000 nM
  cell viability: 102%
[14]; 10000 nM
  cell viability: 93.8%
[15]; 1 nM
  cell viability: 99.8%
[15]; 10 nM
  cell viability: 96.9%
[15]; 100 nM
  cell viability: 91.3%
[15]; 1000 nM
  cell viability: 101%
[15]; 10000 nM
  cell viability: 100%
[16]
  IC50 (cell viability): > 10 µM
[17]
  IC50 (cell viability): > 10 µM
[18]
  IC50 (cell viability): > 10 µM
[19]
  IC50 (cell viability): > 10 µM
[20]
  IC50 (cell viability): > 10 µM
[21]
  IC50 (cell viability): > 10 µM
[22]
  IC50 (cell viability): > 10 µM
[23]
  IC50 (cell viability): > 10 µM
[24]
  IC50 (cell viability): > 10 µM
[25]
  IC50 (cell viability): > 10 µM
[26]
  IC50 (cell viability): > 10 µM
[27]
  IC50 (cell viability): > 10 µM
[28]
  IC50 (cell viability): > 10 µM
[29]
  IC50 (cell viability): > 10 µM
[30]
  IC50 (cell viability): > 10 µM
